These results are taken from patent publication US20200164005A1, “PHARMACEUTICAL COMPOSITIONS OF A BILE ACID DERIVATIVE AND MICROBIOME AND USES THEREOF” (Intercept Pharmaceuticals, Inc., priority 2017, published 2020).

In assay [1] the test system is Lactococcus lactis, Streptococcus thermophilus, and Lactobacillus casei/paracasei. Nature of the assay: Minimal inhibitory concentrations (MIC) of bile acids and OCA, aerobic and anaerobic. It is filed as cell-based. The note with it: millimolar range; aerobic and anaerobic. The source says: FIGS. 58A-58B: Minimal inhibitory concentrations (MICs) of selected Gram-positive bacterial species in response treatment with two endogenous bile acids and OCA. […] N=3 per measurement. […] N=3 per measurement.
a (Begley et al., FEMS Microbiol Rev. 29, 625-651 (2005)), and conducted genomic analysis is consistent with the notion that specific Gram-positive taxa become proportionally more abundant during OCA administration due to enhanced proliferation. FXR-dependent inhibition of endogenous bile acid synthesis by OCA may reduce the growth inhibitory effects on Gram-positive bacterial species that are normally sensitive to bile acids. To determine if the three bacterial species with the greatest representation of pathways associated with OCA (FIG. 57A) are sensitive to bile acids, the species-specific minimal inhibitory concentrations (MIC) of the two most predominant bile acids in the human small intestine, glycochenodeoxycholic acid (GCDCA) and glycocholic acid (GCA) were determined (FIG. 58A). Since the environment of the small intestinal lumen may transition from an aerobic to anaerobic state along its length (He et al., Proceedings of the National Academy of Sciences of the United States of America, 96, 4586-4591 (1999)), MICs were determined under both aerobic and anaerobic conditions. […] Consistent with this notion, it has been shown that bile salt hydrolases (BSH), enzymes that are unique to bacteria resident in the mammalian gut where they can enhance bile acid tolerance (Begley et al., FEMS Microbiol Rev. 29, 625-651 (2005)), are missing from the genome of S. thermophilus, which is induced by OCA. It can be supported by showing that these species are sensitive to growth inhibition in vitro when exposed to physiologically-relevant concentrations of conjugated bile acids found in the small intestine. […] Since OCA is a bile acid analogue possibly capable of inhibiting bacterial growth, the MICs of OCA for the same bacterial species were determined (FIG. 58B). […] These findings support the notion that OCA treatment leads to the increased growth of bile acid sensitive bacterial taxa by suppressing endogenous bile acid synthesis.

For assay [2], the system named is bacterial strains found in the human small intestine. Nature of the assay: Inhibition of bacterial growth by bile acids, microbroth dilution, optical density at 630 nm. It is filed as cell-based. The following applies: aerobic or anaerobic. The method, then: The toxicity of several bile acids to various gut microbiome species was examined. Representative species were exposed to different bile acids at a range of concentrations under either aerobic or anaerobic condition, and the growth of the species at these concentrations was measured by determining the optical density of the culture.
Lactobacillus casei CP was purchased from Custom Probiotics Inc. (Glendale, Calif.) as L. casei Custom Probiotic Powder (strain confirmed by Sanger sequencing of the 16S gene). Pediococcus pentosaceus KE-99 was purchased from Probiohealth (Beverly Hills, Calif.) as KE-99 LACTO Tablet (strain confirmed by Sanger sequencing of the 16S gene). L. casei 393, Streptoccocus thermophilus LMD-9, Akkermansia muciniphila Muc, and Veillonella parvula Te3 were purchased from the American Type Culture Collection (ATCC, Manassas, Va.). Lactococcus lactis NZ9000 was purchased from BOCA Scientific (Boca Raton, Fla.). Escherichia coli Nissle was obtained from Dr. Mark Goulian (University of Pennsylvania, Philadelphia, Pa.).
L. casei, P. pentasaceus, and L. lactis were grown in de Man, Rogosa, and Sharpe (MRS) medium (Anaerobe Systems, Morgan Hill, Calif.); E. coli was grown in lysogeny broth (LB) medium (Fisher Scientific, USA); S. thermophilus and A. muciniphila were grown in brain heart infusion (BHI) medium (Fisher Scientific, USA and Anaerobe Systems, Morgan Hill, Calif.), and; V. parvula was grown in reinforced clostridial medium (Fisher Scientific, USA). Aerobic cultures were incubated at 37° C.; anaerobic cultures were incubated at 37° C. in an anaerobic glove box (Coy Laboratories, Grass Lake, Mich.).
Glycochenodeoxycholic, glycocholic, and taurocholic acids were purchased from Sigma Aldrich (St. Louis, Mo.). Obeticholic acid was provided by Intercept Pharmaceuticals, Inc. (New York, N.Y.).
Inhibition of bacterial growth by bile acids was determined by the microbroth dilution method. Plates were prepared with 100 uL of medium containing the appropriate concentrations of bile acid. Wells were inoculated with 1 uL of an overnight culture, covered, and incubated overnight (3 days for A. muciniphila and V. parvula, which are slow growing organisms). Growth was measured via optical density at 630 nm, and measurements were zeroed against wells containing the appropriate bile acid level with no bacteria. All tests were performed in triplicate. Data is expressed as the percent (%) reduction in growth, which was calculated against controls (i.e., no bile acids). The responses of representative species to different concentrations of bile acids are illustrated by the heat maps shown in FIGS. 53A-53D.

Consider `C[C@H](CCC(=O)NCC(=O)O)[C@H]1CC[C@H]2[C@@H]3[C@H](O)C[C@@H]4C[C@H](O)CC[C@]4(C)[C@H]3C[C@H](O)[C@]12C` [GCA, glycocholic acid, reference compound], for which the “growth of all three species at physiologically relevant concentrations” value in assay [1] is on record as “significantly inhibited”. Further, the “growth inhibitory effects on various strains of gram positive bacteria” value in assay [2] is “differential growth inhibitory effects”.
In the same order, the values of `CC(CCC(=O)NCC(=O)O)C1CCC2C3C(O)CC4CC(O)CCC4(C)C3CCC12C` (centres unmarked) [GCDCA, glycochenodeoxycholic acid, reference compound] are “significantly inhibited” and “differential growth inhibitory effects”.
Consider `C[C@H](CCC(=O)NCCS(=O)(=O)O)[C@H]1CC[C@H]2[C@@H]3[C@H](O)C[C@@H]4C[C@H](O)CC[C@]4(C)[C@H]3C[C@H](O)[C@]12C` [TCA, taurocholic acid], for which the “growth inhibitory effects on various strains of gram positive bacteria” value in assay [2] was “differential growth inhibitory effects”.
